In patent publication US10092492B2, “Cosmetic composition comprising spiculisporic acid and at least one surfactant” (L'OREAL, priority 2013, dated 2018):
Several values for one entry are separate records, joined by “and”; a condition that tells them apart may be missing. Equal entries are not always repeated. Entries after “also recorded” stand apart in the source; their conditions may differ.

Columns and labels:
[1] = Example 2: aspect and pH of S-acid pre-solubilized with KOH (R1=2) in association with surfactants; format: physicochemical; conditions: for pH t0 RT / pH RT, 20 days after storage / pH T = 4° C., 20 days after storage: KOH R1=2
Text: Solutions, containing S-acid at 4% or 8% (neutralized with an amount of KOH calculated in order to obtain the di-potassium salt of S-acid, i.e., R1=2) and surfactants, were made.

[2] = cited from earlier work
[3] = Example 1: pH and aspect of S-acid solutions neutralized with NaOH (30%) or KOH (50%), stabilized at 4° C. and RT; format: physicochemical; design: key to aspect of the solution (precipitation mark): The marked solutions (*) correspond to precipitated solutions; conditions: for pH T4° C. 24 h / pH T4° C. 30 days / pH TRT 24 h / pH TRT 30 days / pH TRT t0: R1=2
Text: In order to neutralize spiculisporic acid (S-acid), two moles of base were used for one mole of S-acid, i.e., R1=2.
Increasing concentration ranges of S-acid from 1% to 10% were achieved, either with NaOH (solution at 30% m/m), or with KOH (solution at 50% m/m).
The solutions were made twice (A and B) in order to evaluate the reproducibility of the results. All the ranges of the neutralized solutions with both bases are limpid at t0 and the pH values obtained range from 5.19 to 6.79.
The marked solutions (*) correspond to precipitated solutions.

[4] = Example 2: pH and macroscopic observation of S-acid neutralized with NaOH (R1=1.1) with surfactants, stored at 4° C.; format: physicochemical; conditions: for Macroscopic observation after 12 days after storage: stored in the dark at 4° C., listed as S-acid alone
Method: Solutions, containing S-acid at 4% or 8% (neutralized with an amount of NaOH calculated in order to obtain R1=1.1) and surfactants, were made, as shown in the table below:
The solutions were prepared according to the following procedure:
S-acid aqueous solution is prepared. The base is added under stirring. The resulting mixture is stirred at 40° C. Then the surfactant is added under stirring. The solution is then stored in the dark at 4° C.

[5] = S-acid 4% MA, surfactant 4% where present
[6] = KOH solution at 50%, S-acid 1%, A and B
[7] = KOH solution at 50%, S-acid 2%, A and B
[8] = NaOH solution at 30%, S-acid 1%, A and B
[9] = NaOH solution at 30%, S-acid 2%, A and B

SMILES: CCCCCCCCCCC(C(=O)O)C1(C(=O)O)CCC(=O)O1 (centres unmarked) [S-acid, 4,5-dicarboxy-4-pentadecanolide]
- pH t0 RT ([1]; S-acid 4% MA, surfactant 4% active material where present): 5.97
- pH RT, 20 days after storage [1, 5]: 6.02
- pH T = 4° C., 20 days after storage [1, 5]: 6.01
- result after 20 days of storage at 4° C. (in words) ([1]; S-acid 4%, KOH R1=2, surfactant 4% where present): precipitation
- pH RT, 20 days after storage ([1]; S-acid 8% MA, no surfactant): 6.47
- pH T = 4° C., 20 days after storage ([1]; S-acid 8% MA, no surfactant): 6.47
- pH t0 RT ([1]; S-acid 8% MA, no surfactant): 6.43
- result after 20 days of storage at 4° C. (in words) ([1]; S-acid 8%, KOH R1=2, no surfactant): precipitation
- solubility in water at a high temperature ([2]; high temperature): partly soluble
- solubility in ethanol ([2]; room temperature): soluble
- solubility in fats ([2]; room temperature): insoluble
- solubility in water ([2]; room temperature): insoluble
- pH T4° C. 24 h [3, 6]: 6.09 and 5.26
- pH T4° C. 30 days [3, 6]: 5.86 and 5.39
- pH TRT 24 h [3, 6]: 6.03 and 5.28
- pH TRT 30 days [3, 6]: 5.69 and 5.18
- pH TRT t0 [3, 6]: 5.93 and 5.22
- pH T4° C. 24 h [3, 7]: 5.48 and 5.61
- pH T4° C. 30 days [3, 7]: 5.46 and 5.53
- pH TRT 24 h [3, 7]: 5.67 and 5.59
- pH TRT 30 days [3, 7]: 5.39 and 5.59
- pH TRT t0 [3, 7]: 5.4 and 5.19
- aspect of the solution (precipitation mark) ([3]; KOH, S-acid 2%, 4° C. 24 h): *
- aspect of the solution (precipitation mark) ([3]; KOH, S-acid 2%, 4° C. 30 days): *
- aspect of the solution (precipitation mark) ([3]; KOH, S-acid 2%, RT 24 h): *
- aspect of the solution (precipitation mark) ([3]; KOH, S-acid 2%, RT 30 days): *
- pH T4° C. 24 h [3, 8]: 5.78 and 5.49
- pH T4° C. 30 days [3, 8]: 5.69 and 5.41
- pH TRT 24 h [3, 8]: 5.78 and 5.49
- pH TRT 30 days [3, 8]: 5.59 and 5.42
- pH TRT t0 ([3]; NaOH solution at 30%, S-acid 1%, duplicate solutions A and B): 5.66 and 5.37
- pH T4° C. 24 h [3, 9]: 5.7 and 5.78
- pH T4° C. 30 days [3, 9]: 5.72 and 5.69
- pH TRT 24 h [3, 9]: 5.7 and 5.74
- pH TRT 30 days [3, 9]: 5.64 and 5.49
- pH TRT t0 ([3]; NaOH solution at 30%, S-acid 2%, duplicate solutions A and B): 5.64 and 5.6
- aspect of the solution (precipitation mark) ([3]; NaOH, S-acid 2%, 4° C. 24 h): *
- aspect of the solution (precipitation mark) ([3]; NaOH, S-acid 2%, 4° C. 30 days): *
- aspect of the solution (precipitation mark) ([3]; NaOH, S-acid 2%, RT 30 days): *
- stability of the solutions after 30 days at 4° C. ([3]; from 2% of S-acid, both bases (NaOH, KOH)): crystallization
- pH t0 RT ([4]; S-acid 4% MA, NaOH R1=1.1): 4.89
- Macroscopic observation after 12 days after storage ([4]; S-acid 4% MA, NaOH R1=1.1): precipitation; also recorded: precipitate
- pH t0 RT ([4]; S-acid 8% MA, NaOH): 5.11
- Macroscopic observation after 12 days after storage ([4]; S-acid 8% MA, NaOH): precipitation; also recorded: precipitate
